The values that follow come from publication PMC4503722, “Novel Phenotypic Outcomes Identified for a Public Collection of Approved Drugs from a Publicly Accessible Panel of Assays” (PLoS ONE, 2015).

Read-outs that look alike come from different tables or passages of the source.

What all share (assay): cells
One assay relates to DLD-1. Format: cell-based.
The subject of a further assay is SNU-C1. Format: cell-based.
The test system of a further assay is INS-1E cells. Type of assay: cell-based, rat.
Another assay concerns HT-29. Type of assay: cell-based.
The subject of assay [1] is HCT116 cells treated with a GSK3β inhibitor. Format: cell-based.
The subject of assay [2] is nuclear β-catenin in C2C12 cells. Type of assay: cell-based.
Assay [3] relates to endothelial tube formation in co-cultures of ECFCs and ADSCs treated with VEGF. Type of assay: cell-based, human.
The test system of a further assay is NCI-H716 cells. Type of assay: cell-based, Human.
A further assay has as its system Colo320. Type of assay: cell-based.
A further assay has as its system SW480. Type of assay: cell-based.
In another assay the test system is HeLa cells. Type of assay: cell-based. Particulars: read-out: CellCycle G2/M.
The next assay relates to RKO. Type of assay: cell-based. Conditions: read-out: Basal_Viability ATP RKO.
A further assay deals with HCT116. Format: cell-based.
Where [4] appears, read: read-out: Basal_Viability ATP DLD-1.
Where [5] appears, read: read-out: Basal_Viability ATP SNU-C1.
The mark [6] stands for this setting: read-out: Basal_Viability ATP HT-29.
Where [7] appears, read: read-out: GSK3b inh pretreated_Viability ATP HCT116.
Setting [8] is: read-out: Basal_Viability ATP Colo 320.
Where [9] appears, read: read-out: Basal_Viability ATP SW480.
The mark [10] stands for this setting: read-out: Basal_Viability ATP HCT116.

As for `Fc1ccc(C(OCCN2CCN(CCCc3ccccc3)CC2)c2ccc(F)cc2)cc1`, the IC50 with DLD-1 (basal, DLD-1, read-out: Basal_Viability ATP DLD-1) is 0.903 µM; with SNU-C1 (basal, SNU-C1, read-out: Basal_Viability ATP SNU-C1), 1.82 µM; with HT-29 (basal, HT-29, read-out: Basal_Viability ATP HT-29), 1.49 µM; in assay [1] (HCT116 pretreated with GSK3b inhibitor, read-out: GSK3b inh pretreated_Viability ATP HCT116) it was 2.85 µM; in assay [3] (S2 Table; module primary assay; 20 = no response at highest concentration, 20.1 = inactive in single concentration testing; read-out: Anti-Angiogenesis) it was > 10 µM; with Colo320 (basal, Colo 320, read-out: Basal_Viability ATP Colo 320), > 20 µM. For the same compound, the IC50 with SW480 (basal, SW480, read-out: Basal_Viability ATP SW480) came out at 2.07 µM; in the assay on RKO (basal, RKO), 0.113 µM; in the assay with HCT116 (basal, HCT116, read-out: Basal_Viability ATP HCT116) it was 4.87 µM. For the same compound, the EC50 in the assay with INS-1E cells (S2 Table; module primary assay; 20 / 20.1 codes per legend; read-out: Insulin Secretion) was > 10 µM; in assay [2] (S2 Table, module primary assay, 20 / 20.1 codes per legend, read-out: Wnt Pathway), > 10 µM; in the assay on NCI-H716 cells (S2 Table; module primary assay; 20 / 20.1 codes per legend; read-out: GLP 1 Secretion), > 10 µM; in the assay with HeLa cells (S2 Table, HeLa, 20 = no response at highest concentration), > 10 µM.

For `CCC(COC(=O)c1cc(OC)c(OC)c(OC)c1)(c1ccccc1)N(C)C` (centres unmarked), the IC50 is > 20 µM in the assay with DLD-1 (setting [4]); 2.45 µM in the assay with SNU-C1 (setting [5]); > 20 µM in the assay with HT-29 (setting [6]); 1.61 µM in assay [1] (setting [7]); > 10 µM in assay [3] (read-out: Anti-Angiogenesis); > 20 µM in the assay with Colo320 (setting [8]). Besides, the IC50 in the assay on SW480 (setting [9]) was > 20 µM; in the assay on RKO it was 0.142 µM; with HCT116 (setting [10]), > 20 µM. Besides, the EC50 (in the assay with INS-1E cells (read-out: Insulin Secretion); in [2] (read-out: Wnt Pathway); in the assay on NCI-H716 cells (read-out: GLP 1 Secretion); in the assay with HeLa cells) was > 10 µM each time.

For `O=Cc1ccc(O)c(O)c1O` [2,3,4-Trihydroxybenzaldehyde], the IC50 was > 20 µM in the assay on DLD-1 (Homo sapiens, DLD-1, read-out: Basal_Viability ATP DLD-1); > 20 µM with SNU-C1 (Homo sapiens, SNU-C1, read-out: Basal_Viability ATP SNU-C1); > 20 µM in the assay with HT-29 (Homo sapiens, HT-29, read-out: Basal_Viability ATP HT-29); 0.141 µM in assay [1] (Homo sapiens, HCT-116, read-out: GSK3b inh pretreated_Viability ATP HCT116); > 10 µM in assay [3] (Homo sapiens, read-out: Anti-Angiogenesis); 9.08 µM in the assay with Colo320 (Homo sapiens, COLO 320, read-out: Basal_Viability ATP Colo 320). Besides, the IC50 was 11.3 µM in the assay on SW480 (Homo sapiens, SW480, read-out: Basal_Viability ATP SW480); 6.23 µM with RKO (Homo sapiens, RKO); > 20 µM in the assay on HCT116 (Homo sapiens, HCT-116, read-out: Basal_Viability ATP HCT116). For the same compound, the EC50 in the assay on INS-1E cells (Rattus norvegicus, INS-1E, read-out: Insulin Secretion) was > 10 µM; in assay [2] (Mus musculus, C2C12, read-out: Wnt Pathway), > 10 µM; in the assay on NCI-H716 cells (Homo sapiens, NCI-H716, read-out: GLP 1 Secretion), > 10 µM; in the assay with HeLa cells (Homo sapiens, HeLa), > 10 µM.

In the case of `CCN1C(=CC=Cc2sc3ccccc3[n+]2CC)Sc2ccccc21` [3,3'-diethylthiacarbocyanine iodide], the IC50 in the assay on DLD-1 (setting [4]) was 0.0148 µM; in the assay on SNU-C1 (setting [5]), 0.0172 µM; with HT-29 (setting [6]) it was 0.00838 µM; in assay [1] (setting [7]) it was 0.00875 µM; in assay [3] (read-out: Anti-Angiogenesis), > 10 µM; in the assay on Colo320 (setting [8]), 0.562 µM. Also, the IC50 in the assay on SW480 (setting [9]) came out at 0.172 µM; with RKO, 0.00898 µM; in the assay on HCT116 (setting [10]), 0.00957 µM. Also, the EC50 (in the assay with INS-1E cells (read-out: Insulin Secretion); in [2] (read-out: Wnt Pathway); with NCI-H716 cells (read-out: GLP 1 Secretion); in the assay on HeLa cells) was > 10 µM in each case.

In the case of `CCc1oc2ccccc2c1C(=O)c1cc(Br)c(O)c(Br)c1` [Benzbromarone], the IC50 was 0.268 µM in the assay with DLD-1 (Homo sapiens, DLD-1, basal, DLD-1, read-out: Basal_Viability ATP DLD-1); 0.105 µM in the assay with SNU-C1 (Homo sapiens, SNU-C1, basal, SNU-C1, read-out: Basal_Viability ATP SNU-C1); 1.14 µM in the assay on HT-29 (Homo sapiens, basal, HT-29, read-out: Basal_Viability ATP HT-29); 0.0667 µM in assay [1] (Homo sapiens, HCT-116, HCT116 pretreated with GSK3b inhibitor, read-out: GSK3b inh pretreated_Viability ATP HCT116); > 10 µM in assay [3] (Homo sapiens; read-out: Anti-Angiogenesis); > 20 µM in the assay with Colo320 (Homo sapiens, basal, Colo 320, read-out: Basal_Viability ATP Colo 320). Further, the IC50 was determined as 1.74 µM in the assay on SW480 (Homo sapiens, SW480, basal, SW480, read-out: Basal_Viability ATP SW480); 0.131 µM in the assay on RKO (Homo sapiens, basal, RKO); 1.06 µM with HCT116 (Homo sapiens, HCT-116, basal, HCT116, read-out: Basal_Viability ATP HCT116). In addition, the EC50 is > 10 µM in the assay with INS-1E cells (Rattus norvegicus, INS-1E; read-out: Insulin Secretion); > 10 µM in assay [2] (Mus musculus, C2C12, S2 Table, module primary assay, 20 / 20.1 codes per legend, read-out: Wnt Pathway); > 20 µM in the assay with NCI-H716 cells (Homo sapiens, NCI-H716; read-out: GLP 1 Secretion); > 10 µM in the assay on HeLa cells (Homo sapiens, HeLa, S2 Table, HeLa, 20 = no response at highest concentration).
